Assay results taken from ChEMBL document CHEMBL1165872, “Synthesis and molecular docking studies of 1-phenyl-4-glycosyl-dihydropyridines as potent antileishmanial agents” (Eur J Med Chem, 2010).
Converted amounts (≈) assume the structure as drawn.

Tests used:
[1] = Cytotoxicity against mouse J774A1 cells after 72 hrs by MTT assay; type: cell-based, J774.A1
[2] = system: Leishmania donovani; assay: Antileishmanial activity against Leishmania donovani MHOM/IN/Dd8 promastigote carrying firefly luciferase gene assessed as relative luminescence unit at 40 ug/mL after 72 hrs; type: functional; details: MHOM/IN/Dd8, 72 h
[3] = system: Leishmania donovani; assay: Antileishmanial activity against Leishmania donovani MHOM/IN/Dd8 promastigote carrying firefly luciferase gene assessed as relative luminescence unit after 72 hrs; type: functional, organism-based
[4] = system: Leishmania donovani; assay: Antileishmanial activity against Leishmania donovani MHOM/IN/Dd8 amastigote carrying firefly luciferase gene infected in mouse J774A1 cells assessed as relative luminescence unit after 72 hrs; type: functional, organism-based, J774.A1
[5] = Selectivity index, ratio of CC50 for mouse J774A1 cells to IC50 for Leishmania donovani MHOM/IN/Dd8 amastigote; type: functional, J774.A1
[6] = system: Leishmania donovani; assay: Antileishmanial activity against Leishmania donovani MHOM/IN/Dd8 amastigote infected in hamster assessed as inhibition of amastigote multiplication at 50 mg/kg, ip for 5 days; type: functional; details: 120 h, route intraperitoneal
[7] = system: Leishmania donovani; assay: Antileishmanial activity against Leishmania donovani MHOM/IN/Dd8 amastigote infected in hamster assessed as inhibition of amastigote multiplication at 40 mg/kg, ip for 5 days; type: functional; details: 120 h, route intraperitoneal
[8] = system: Leishmania donovani; assay: Antileishmanial activity against Leishmania donovani MHOM/IN/Dd8 amastigote infected in hamster assessed as inhibition of amastigote multiplication at 30 mg/kg, po for 5 days; type: functional; details: MHOM/IN/Dd8, 120 h
[9] = Leishmania donovani, MHOM/IN/Dd8, 72 h, read-out: IC50
[10] = Leishmania donovani, MHOM/IN/Dd8, J774.A1, 72 h, read-out: IC50

SMILES | IC50 [3, 9] [µg/mL] | IC50 [4, 10] [µg/mL] | IC50 [3] | IC50 ([4]; j774.a1) | CC50 at 72 h [1] [µg/mL] | inhibition at 40 µg/mL [2] [%] | Ratio CC50/IC50 [5] | inhibition in vivo at 50 mg/kg [6] [%] | inhibition in vivo at 40 mg/kg [7] [%] | inhibition in vivo at 30 mg/kg [8] [%]
COC(=O)C1=C(C)N(c2ccc(N)cc2)C(C)=C(C(=O)OC)C1[C@@H]1O[C@H]2OC(C)(C)O[C@H]2[C@@H]2OC(C)(C)O[C@@H]21 | – | – | Not Active | Not Active | – | > 80 | – | – | – | –
N=C(N)c1ccc(OCCCCCOc2ccc(C(=N)N)cc2)cc1 [PENTAMIDINE] | 3.23 (≈ 9.49 µM) | 3.59 (≈ 10.5 µM) | – | – | 3.91 (≈ 11.5 µM) | – | 1.08 | – | 92 | –
COC(=O)C1=C(C)N(c2ccc(Cl)c(Cl)c2)C(C)=C(C(=O)OC)C1[C@@H]1O[C@H]2OC(C)(C)O[C@H]2[C@@H]1O | 3.72 (≈ 7.04 µM) | 10.1 (≈ 19.2 µM) | – | – | 29.9 (≈ 56.7 µM) | > 80 | 2.96 | – | – | –
CCOC(=O)C1=C(C)N(c2ccccc2OC)C(C)=C(C(=O)OCC)C1[C@@H]1O[C@H]2OC(C)(C)O[C@H]2[C@@H]1OC | 0.22 (≈ 0.414 µM) | 6.18 (≈ 11.6 µM) | – | – | 49.7 (≈ 93.5 µM) | > 80 | 8.04 | 49.7 | – | –
COC(=O)C1=C(C)N(c2ccc(F)cc2)C(C)=C(C(=O)OC)C1[C@@H]1O[C@H]2OC(C)(C)O[C@H]2[C@@H]1OCc1ccccc1 | 3.67 (≈ 6.47 µM) | – | – | Not Active | – | > 80 | – | – | – | –
COC(=O)C1=C(C)N(c2ccc(Cl)cc2)C(C)=C(C(=O)OC)C1[C@@H]1O[C@H]2OC(C)(C)O[C@H]2[C@@H]2OC(C)(C)O[C@@H]21 | 4.17 (≈ 7.39 µM) | 14.3 (≈ 25.4 µM) | – | – | 15.2 (≈ 27 µM) | > 80 | 1.06 | – | – | –
COC(=O)C1=C(C)N(c2ccc(C)cc2)C(C)=C(C(=O)OC)C1[C@@H]1O[C@H]2OC(C)(C)O[C@H]2[C@@H]1OCc1ccccc1 | 3.62 (≈ 6.42 µM) | 4.89 (≈ 8.68 µM) | – | – | 7.66 (≈ 13.6 µM) | > 80 | – | – | – | –
CCCCCCCCCCCCCCCCOP(=O)([O-])OCC[N+](C)(C)C [MILTEFOSINE] | 0.643 (≈ 1.58 µM) | 12.1 (≈ 29.7 µM) | – | – | 31.3 (≈ 76.8 µM) | – | 2.58 | – | – | 95
CCOC(=O)C1=C(C)N(c2ccc(OC)cc2)C(C)=C(C(=O)OCC)C1[C@@H]1O[C@H]2OC(C)(C)O[C@H]2[C@@H]1OCc1ccccc1 | 1.65 (≈ 2.72 µM) | 8.08 (≈ 13.3 µM) | – | – | 59.9 (≈ 98.6 µM) | > 80 | 7.42 | – | – | –
COC(=O)C1=C(C)N(c2ccc(Cl)cc2)C(C)=C(C(=O)OC)C1[C@@H]1O[C@H]2OC(C)(C)O[C@H]2[C@@H]1OCc1ccccc1 | 1.86 (≈ 3.18 µM) | 3.8 (≈ 6.51 µM) | – | – | 4.22 (≈ 7.23 µM) | > 80 | 1.109 | – | – | –

More lines, main results first:

IC50 [3, 9] [µg/mL] | IC50 [4, 10] [µg/mL] | IC50 [3] | IC50 ([4]; j774.a1) | SMILES | CC50 at 72 h [1] [µg/mL] | inhibition at 40 µg/mL [2] [%] | Ratio CC50/IC50 [5] | inhibition in vivo at 50 mg/kg [6] [%] | inhibition in vivo at 40 mg/kg [7] [%] | inhibition in vivo at 30 mg/kg [8] [%]
1.94 (≈ 3.35 µM) | 0.75 (≈ 1.29 µM) | – | – | COC(=O)C1=C(C)N(c2ccc(OC)cc2)C(C)=C(C(=O)OC)C1[C@@H]1O[C@H]2OC(C)(C)O[C@H]2[C@@H]1OCc1ccccc1 | 14.1 (≈ 24.4 µM) | > 80 | 18.93 | 26.8 | – | –
0.86 (≈ 1.74 µM) | 3.85 (≈ 7.79 µM) | – | – | COC(=O)C1=C(C)N(c2ccc(Cl)cc2)C(C)=C(C(=O)OC)C1[C@@H]1O[C@H]2OC(C)(C)O[C@H]2[C@@H]1O | 35.5 (≈ 71.9 µM) | > 80 | 9.21 | 44.9 | – | –
– | – | Not Active | Not Active | CCOC(=O)C1=C(C)N(c2ccc(C)cc2)C(C)=C(C(=O)OCC)C1[C@@H]1O[C@H]2OC(C)(C)O[C@H]2[C@@H]1OC | – | > 80 | – | – | – | –
12.4 (≈ 24.6 µM) | 4.42 (≈ 8.78 µM) | – | – | COC(=O)C1=C(C)N(c2ccc(OC)cc2)C(C)=C(C(=O)OC)C1[C@@H]1O[C@H]2OC(C)(C)O[C@H]2[C@@H]1OC | 18.6 (≈ 37 µM) | > 80 | 4.21 | – | – | –
– | – | Not Active | Not Active | COC(=O)C1=C(C)N(c2ccc(OC)cc2)C(C)=C(C(=O)OC)C1[C@@H]1O[C@H]2OC(C)(C)O[C@H]2[C@@H]2OC(C)(C)O[C@@H]21 | – | > 80 | – | – | – | –
1.74 (≈ 3.57 µM) | 4.45 (≈ 9.13 µM) | – | – | COC(=O)C1=C(C)N(c2ccc(C)cc2)C(C)=C(C(=O)OC)C1[C@@H]1O[C@H]2OC(C)(C)O[C@H]2[C@@H]1OC | 33.1 (≈ 67.8 µM) | > 80 | 7.43 | 58.8 | – | –
0.88 (≈ 1.59 µM) | 3.57 (≈ 6.46 µM) | – | – | COC(=O)C1=C(C)N(c2ccc(Br)cc2)C(C)=C(C(=O)OC)C1[C@@H]1O[C@H]2OC(C)(C)O[C@H]2[C@@H]1OC | 48.5 (≈ 87.8 µM) | > 80 | 13.58 | 43.9 | – | –
1.94 (≈ 3.82 µM) | 19.1 (≈ 37.5 µM) | – | – | COC(=O)C1=C(C)N(c2ccc(Cl)cc2)C(C)=C(C(=O)OC)C1[C@@H]1O[C@H]2OC(C)(C)O[C@H]2[C@@H]1OC | 82.4 (≈ 162 µM) | > 80 | 4.32 | – | – | –
